# According to patent US11744830B2, “Ameliorative agent for cytokine release syndrome and so on” (TORII PHARMACEUTICAL CO., LTD., priority 2018, dated 2023):
# Counter-ions that a name gives are not always drawn.
# Tests used:
# [1] = tested on: VEGF production from macrophages; test: LPS stimulation-induced VEGF production in macrophages; type: cell-based, human
# Description: CD14^+ cells were cultured in 20 ng/mL M-CSF-containing RPMI medium at 37° C. for 5 days to induce differentiation into macrophages (during which the medium was replaced once every two days with fresh 20 ng/mL M-CSF-containing RPMI medium). […] The macrophages were then stimulated with LPS (final concentration: 100 ng/mL) or RPMI medium alone at 37° C. for 3 days, followed by collecting the culture supernatants. The collected culture supernatants were quantified for VEGF using Human VEGF DuoSet ELISA.
# [2] = tested on: IL-6 production; test: CRS toxicity evaluation system using CAR-T cells: IL-6; type: cell-based, human; conditions: for IC50: Homo sapiens, Monocyte, CAR-T cells, target cells and monocytes, 72 hours
# Description: The supernatants were collected at 72 hours after the initiation of culture, and various cytokines in each supernatant were measured by FACS multiplex assay.
# [3] = tested on: IL-6, IL-8 and other inflammatory cytokines; conditions: phase I study, LPS loading; cited from earlier work
# [4] = tested on: acute myeloid leukemia (AML) cell lines; conditions: in vitro system; cited from earlier work
Compound,"IC50 ([1]; Homo sapiens, Macrophage, 72 h, read-out: IC50 value, VEGF) [nM]","effect on VEGF production from macrophages ([1]; Macrophages, LPS)",IC50 [2] [nM],elevation of C-reactive protein (CRP) levels [3],"production of IL-6, IL-8 and other inflammatory cytokines [3]",autoproliferation of AML cell lines [4],suppressive effect on IL-6 production ([2]; CRS toxicity evaluation system using CAR-T cells)
"CCOC(=O)[C@H](Cc1ccccc1)NC(=O)c1cc(Cl)c(OCCN2CCN(C)CC2)c(Cl)c1O [JTE-607, (−)-ethyl N-{3,5-dichloro-2-hydroxy-4-[2-(4-methylpiperazin-1-yl)ethoxy]benzoyl}-L-phenylalaninate dihydrochloride]",204,"tended to suppress VEGF production from macrophages, but its effect was marginal",188,suppress the elevation of C-reactive protein (CRP) levels in a dose-dependent manner,"suppress the production of IL-6, IL-8 and other inflammatory cytokines",selectively suppress the autoproliferation,–
"C[C@]12C=CC(=O)C=C1CC[C@@H]1[C@@H]2[C@@H](O)C[C@@]2(C)[C@H]1CC[C@]2(O)C(=O)CO [PSL, Prednisolone]",–,–,> 10000,–,–,–,no suppressive effect
